Experimental data: paper PMC10339703 (Clinical and Translational Science, 2023)

Tested on: healthy subjects
Test: Safety and tolerability
Format: in vivo, human
[1] = MAD 25 mg tablet b.i.d. 14 days
[2] = MAD 50 mg tablet b.i.d. 14 days
[3] = MAD 100 mg tablet b.i.d. 14 days
[4] = MAD 200 mg tablet b.i.d. 14 days

O[C@H]1CCCN[C@@H]1CCCn1cnc2c(Cl)c(Cl)ccc21 [Bersiporocin]
ADRs, number of events [1]: 25
Abdominal discomfort (ADR), number of events [1]: 1
Abdominal discomfort (ADR), subjects n (%) [1]: 1 (16.7)
Abdominal distension (ADR), number of events [1]: 3
Abdominal distension (ADR), subjects n (%) [1]: 2 (33.3)
Abdominal pain (ADR), number of events [1]: 5
Abdominal pain (ADR), subjects n (%) [1]: 2 (33.3)
Abdominal pain upper (ADR), subjects n (%) [1]: 0
Acne (ADR), subjects n (%) [1]: 0
Alanine aminotransferase increased (ADR), subjects n (%) [1]: 0
Altered visual depth perception (ADR), subjects n (%) [1]: 0
Balance disorder (ADR), subjects n (%) [1]: 0
Bowel movement irregularity (ADR), number of events [1]: 1
Bowel movement irregularity (ADR), subjects n (%) [1]: 1 (16.7)
Cold sweat (ADR), number of events [1]: 1
Cold sweat (ADR), subjects n (%) [1]: 1 (16.7)
Constipation (ADR), subjects n (%) [1]: 0
Decreased appetite (ADR), subjects n (%) [1]: 0
Diarrhea (ADR), number of events [1]: 3
Diarrhea (ADR), subjects n (%) [1]: 2 (33.3)
Dizziness (ADR), subjects n (%) [1]: 0
Dry mouth (ADR), subjects n (%) [1]: 0
Dysgeusia (ADR), subjects n (%) [1]: 0
Eructation (ADR), subjects n (%) [1]: 0
Esophageal pain (ADR), subjects n (%) [1]: 0
Euphoric mood (ADR), subjects n (%) [1]: 0
Feces discolored (ADR), subjects n (%) [1]: 0
Feces soft (ADR), subjects n (%) [1]: 0
Feeling hot (ADR), number of events [1]: 1
Feeling hot (ADR), subjects n (%) [1]: 1 (16.7)
Flatulence (ADR), subjects n (%) [1]: 0
Gastroesophageal reflux disease (ADR), number of events [1]: 2
Gastroesophageal reflux disease (ADR), subjects n (%) [1]: 1 (16.7)
Headache (ADR), subjects n (%) [1]: 0
Hypoesthesia (ADR), subjects n (%) [1]: 0
Impaired healing (ADR), subjects n (%) [1]: 0
Malaise (ADR), number of events [1]: 1
Malaise (ADR), subjects n (%) [1]: 1 (16.7)
Myalgia (ADR), subjects n (%) [1]: 0
Nausea (ADR), number of events [1]: 4
Nausea (ADR), subjects n (%) [1]: 1 (16.7)
Neutropenia (ADR), subjects n (%) [1]: 0
Oropharyngeal pain (ADR), subjects n (%) [1]: 0
Papule (ADR), subjects n (%) [1]: 0
Pollakiuria (ADR), subjects n (%) [1]: 0
Presyncope (ADR), subjects n (%) [1]: 0
Proctalgia (ADR), subjects n (%) [1]: 0
Salivary hypersecretion (ADR), number of events [1]: 3
Salivary hypersecretion (ADR), subjects n (%) [1]: 2 (33.3)
Skin irritation (ADR), subjects n (%) [1]: 0
Somnolence (ADR), subjects n (%) [1]: 0
Subjects with ADRs, n (%) [1]: 4 (66.7)
Transaminases increased (ADR), subjects n (%) [1]: 0
Tremor (ADR), subjects n (%) [1]: 0
Vomiting (ADR), subjects n (%) [1]: 0
ADRs, number of events [2]: 35
Abdominal discomfort (ADR), subjects n (%) [2]: 0
Abdominal distension (ADR), number of events [2]: 1
Abdominal distension (ADR), subjects n (%) [2]: 1 (16.7)
Abdominal pain (ADR), number of events [2]: 1
Abdominal pain (ADR), subjects n (%) [2]: 1 (16.7)
Abdominal pain upper (ADR), subjects n (%) [2]: 0
Acne (ADR), subjects n (%) [2]: 0
Alanine aminotransferase increased (ADR), number of events [2]: 1
Alanine aminotransferase increased (ADR), subjects n (%) [2]: 1 (16.7)
Altered visual depth perception (ADR), number of events [2]: 1
Altered visual depth perception (ADR), subjects n (%) [2]: 1 (16.7)
Balance disorder (ADR), subjects n (%) [2]: 0
Bowel movement irregularity (ADR), subjects n (%) [2]: 0
Cold sweat (ADR), subjects n (%) [2]: 0
Constipation (ADR), number of events [2]: 1
Constipation (ADR), subjects n (%) [2]: 1 (16.7)
Decreased appetite (ADR), subjects n (%) [2]: 0
Diarrhea (ADR), number of events [2]: 2
Diarrhea (ADR), subjects n (%) [2]: 2 (33.3)
Dizziness (ADR), number of events [2]: 1
Dizziness (ADR), subjects n (%) [2]: 1 (16.7)
Dry mouth (ADR), number of events [2]: 1
Dry mouth (ADR), subjects n (%) [2]: 1 (16.7)
Dysgeusia (ADR), number of events [2]: 2
Dysgeusia (ADR), subjects n (%) [2]: 2 (33.3)
Eructation (ADR), subjects n (%) [2]: 0
Esophageal pain (ADR), subjects n (%) [2]: 0
Euphoric mood (ADR), number of events [2]: 1
Euphoric mood (ADR), subjects n (%) [2]: 1 (16.7)
Feces discolored (ADR), number of events [2]: 1
Feces discolored (ADR), subjects n (%) [2]: 1 (16.7)
Feces soft (ADR), subjects n (%) [2]: 0
Feeling hot (ADR), subjects n (%) [2]: 0
Flatulence (ADR), subjects n (%) [2]: 0
Gastroesophageal reflux disease (ADR), number of events [2]: 1
Gastroesophageal reflux disease (ADR), subjects n (%) [2]: 1 (16.7)
Headache (ADR), number of events [2]: 5
Headache (ADR), subjects n (%) [2]: 3 (50.0)
Hypoesthesia (ADR), number of events [2]: 1
Hypoesthesia (ADR), subjects n (%) [2]: 1 (16.7)
Impaired healing (ADR), subjects n (%) [2]: 0
Malaise (ADR), subjects n (%) [2]: 0
Myalgia (ADR), number of events [2]: 2
Myalgia (ADR), subjects n (%) [2]: 2 (33.3)
Nausea (ADR), number of events [2]: 6
Nausea (ADR), subjects n (%) [2]: 4 (66.7)
Neutropenia (ADR), subjects n (%) [2]: 0
Oropharyngeal pain (ADR), number of events [2]: 1
Oropharyngeal pain (ADR), subjects n (%) [2]: 1 (16.7)
Papule (ADR), subjects n (%) [2]: 0
Pollakiuria (ADR), number of events [2]: 1
Pollakiuria (ADR), subjects n (%) [2]: 1 (16.7)
Presyncope (ADR), subjects n (%) [2]: 0
Proctalgia (ADR), subjects n (%) [2]: 0
Salivary hypersecretion (ADR), subjects n (%) [2]: 0
Skin irritation (ADR), subjects n (%) [2]: 0
Somnolence (ADR), subjects n (%) [2]: 0
Subjects with ADRs, n (%) [2]: 6 (100)
Transaminases increased (ADR), subjects n (%) [2]: 0
Tremor (ADR), subjects n (%) [2]: 0
Vomiting (ADR), number of events [2]: 5
Vomiting (ADR), subjects n (%) [2]: 3 (50.0)
ADRs, number of events [3]: 32
Abdominal discomfort (ADR), subjects n (%) [3]: 0
Abdominal distension (ADR), number of events [3]: 3
Abdominal distension (ADR), subjects n (%) [3]: 2 (33.3)
Abdominal pain (ADR), number of events [3]: 8
Abdominal pain (ADR), subjects n (%) [3]: 3 (50.0)
Abdominal pain upper (ADR), number of events [3]: 2
Abdominal pain upper (ADR), subjects n (%) [3]: 2 (33.3)
Acne (ADR), subjects n (%) [3]: 0
Alanine aminotransferase increased (ADR), subjects n (%) [3]: 0
Altered visual depth perception (ADR), subjects n (%) [3]: 0
Balance disorder (ADR), subjects n (%) [3]: 0
Bowel movement irregularity (ADR), subjects n (%) [3]: 0
Cold sweat (ADR), subjects n (%) [3]: 0
Constipation (ADR), number of events [3]: 2
Constipation (ADR), subjects n (%) [3]: 2 (33.3)
Decreased appetite (ADR), subjects n (%) [3]: 0
Diarrhea (ADR), number of events [3]: 4
Diarrhea (ADR), subjects n (%) [3]: 3 (50.0)
Dizziness (ADR), subjects n (%) [3]: 0
Dry mouth (ADR), subjects n (%) [3]: 0
Dysgeusia (ADR), subjects n (%) [3]: 0
Eructation (ADR), subjects n (%) [3]: 0
Esophageal pain (ADR), number of events [3]: 1
Esophageal pain (ADR), subjects n (%) [3]: 1 (16.7)
Euphoric mood (ADR), subjects n (%) [3]: 0
Feces discolored (ADR), subjects n (%) [3]: 0
Feces soft (ADR), number of events [3]: 2
Feces soft (ADR), subjects n (%) [3]: 2 (33.3)
Feeling hot (ADR), subjects n (%) [3]: 0
Flatulence (ADR), subjects n (%) [3]: 0
Gastroesophageal reflux disease (ADR), subjects n (%) [3]: 0
Headache (ADR), subjects n (%) [3]: 0
Hypoesthesia (ADR), subjects n (%) [3]: 0
Impaired healing (ADR), number of events [3]: 1
Impaired healing (ADR), subjects n (%) [3]: 1 (16.7)
Malaise (ADR), subjects n (%) [3]: 0
Myalgia (ADR), subjects n (%) [3]: 0
Nausea (ADR), number of events [3]: 4
Nausea (ADR), subjects n (%) [3]: 3 (50.0)
Neutropenia (ADR), subjects n (%) [3]: 0
Oropharyngeal pain (ADR), subjects n (%) [3]: 0
Papule (ADR), number of events [3]: 1
Papule (ADR), subjects n (%) [3]: 1 (16.7)
Pollakiuria (ADR), subjects n (%) [3]: 0
Presyncope (ADR), number of events [3]: 1
Presyncope (ADR), subjects n (%) [3]: 1 (16.7)
Proctalgia (ADR), subjects n (%) [3]: 0
Salivary hypersecretion (ADR), subjects n (%) [3]: 0
Skin irritation (ADR), number of events [3]: 1
Skin irritation (ADR), subjects n (%) [3]: 1 (16.7)
Somnolence (ADR), subjects n (%) [3]: 0
Subjects with ADRs, n (%) [3]: 6 (100)
Transaminases increased (ADR), subjects n (%) [3]: 0
Tremor (ADR), subjects n (%) [3]: 0
Vomiting (ADR), number of events [3]: 2
Vomiting (ADR), subjects n (%) [3]: 1 (16.7)
ADRs, number of events [4]: 58
Abdominal discomfort (ADR), subjects n (%) [4]: 0
Abdominal distension (ADR), number of events [4]: 5
Abdominal distension (ADR), subjects n (%) [4]: 3 (50.0)
Abdominal pain (ADR), number of events [4]: 14
Abdominal pain (ADR), subjects n (%) [4]: 3 (50.0)
Abdominal pain upper (ADR), subjects n (%) [4]: 0
Acne (ADR), number of events [4]: 1
Acne (ADR), subjects n (%) [4]: 1 (16.7)
Alanine aminotransferase increased (ADR), subjects n (%) [4]: 0
Altered visual depth perception (ADR), subjects n (%) [4]: 0
Balance disorder (ADR), number of events [4]: 1
Balance disorder (ADR), subjects n (%) [4]: 1 (16.7)
Bowel movement irregularity (ADR), subjects n (%) [4]: 0
Cold sweat (ADR), subjects n (%) [4]: 0
Constipation (ADR), subjects n (%) [4]: 0
Decreased appetite (ADR), subjects n (%) [4]: 0
Diarrhea (ADR), number of events [4]: 7
Diarrhea (ADR), subjects n (%) [4]: 4 (66.7)
Dizziness (ADR), number of events [4]: 2
Dizziness (ADR), subjects n (%) [4]: 2 (33.3)
Dry mouth (ADR), subjects n (%) [4]: 0
Dysgeusia (ADR), subjects n (%) [4]: 0
Eructation (ADR), number of events [4]: 1
Eructation (ADR), subjects n (%) [4]: 1 (16.7)
Esophageal pain (ADR), subjects n (%) [4]: 0
Euphoric mood (ADR), subjects n (%) [4]: 0
Feces discolored (ADR), subjects n (%) [4]: 0
Feces soft (ADR), subjects n (%) [4]: 0
Feeling hot (ADR), subjects n (%) [4]: 0
Flatulence (ADR), number of events [4]: 1
Flatulence (ADR), subjects n (%) [4]: 1 (16.7)
Gastroesophageal reflux disease (ADR), subjects n (%) [4]: 0
Headache (ADR), number of events [4]: 7
Headache (ADR), subjects n (%) [4]: 3 (50.0)
Hypoesthesia (ADR), subjects n (%) [4]: 0
Impaired healing (ADR), subjects n (%) [4]: 0
Malaise (ADR), subjects n (%) [4]: 0
Myalgia (ADR), subjects n (%) [4]: 0
Nausea (ADR), number of events [4]: 12
Nausea (ADR), subjects n (%) [4]: 5 (83.3)
Neutropenia (ADR), subjects n (%) [4]: 0
Oropharyngeal pain (ADR), subjects n (%) [4]: 0
Papule (ADR), subjects n (%) [4]: 0
Pollakiuria (ADR), subjects n (%) [4]: 0
Presyncope (ADR), subjects n (%) [4]: 0
Proctalgia (ADR), number of events [4]: 2
Proctalgia (ADR), subjects n (%) [4]: 1 (16.7)
Salivary hypersecretion (ADR), subjects n (%) [4]: 0
Skin irritation (ADR), subjects n (%) [4]: 0
Somnolence (ADR), number of events [4]: 2
Somnolence (ADR), subjects n (%) [4]: 1 (16.7)
Subjects with ADRs, n (%) [4]: 5 (83.3)
Transaminases increased (ADR), subjects n (%) [4]: 0
Tremor (ADR), number of events [4]: 1
Tremor (ADR), subjects n (%) [4]: 1 (16.7)
Vomiting (ADR), number of events [4]: 2
Vomiting (ADR), subjects n (%) [4]: 2 (33.3)
ADRs, number of events (MAD study, bersiporocin group): 150
subjects with ADRs, number (MAD study, bersiporocin group): 21
subjects with ADRs, percentage (MAD study, bersiporocin group): 88%
